Experiments:
Type in all cases: cell-based
human skin fibroblast [1] = assay: iPS cell colony induction, gene transfer with Retronectin or polybrene once or two times (Example 7); settings: 28th day of culture, N=2
Procedure: Regarding gene transfer with a retrovirus vector, introduction was carried out once or two times using Retronectin or polybrene, and induction of a pluripotent stem cell was carried out, followed by comparison.
Regarding gene transfer with Retronectin, according to the same manner as that of Example 4-(2), gene transfer was carried out. Gene transfer with polybrene was carried out as follows. […] Each 700 μL of the virus solutions prepared by Preparation Example 2 were mixed in a combination of the condition C of Table 3, polybrene was added to a final concentration of 8 μg/mL to prepare a retrovirus vector mixed solution, the supernatant was removed from the plate on which the cell had been cultured, this retrovirus vector mixed solution was added, and culturing was initiated (day 0 of culturing).
Gene transfer with polybrene was carried out according to the same manner as that of gene transfer with polybrene of Example 7-(2). That is, the supernatant was removed from the plate on which the cell had been cultured, a retrovirus vector mixed solution prepared similarly was added, and culturing was continued.
On the sixth day of culture, according to the same manner as that of Example 5-(4), the gene-introduced cell was seeded on a feeder cell, and culturing was continued, provided that the gene-introduced cell was seeded by each 1.75×10^4 cells.
The number in the Table indicates an average value of N=2.

human skin fibroblast [2] = assay: Gene transfer efficiency with two retrovirus vectors, AcGFP1/mStrawberry double positive cells by flow cytometer (Example 8); settings: 3 days after gene transfer
Procedure: According to the same manner as that of Example 1-(1), immobilization of Retronectin on a culture plate was carried out, provided that a non-treatment 24-well culture plate (manufactured by Becton, Dickinson and Company) was used, and a Retronectin solution was added to each well by each 500 μL.
Gene transfer with Retronectin was carried out according to the same manner as that of Example 3-(2), provided that a retrovirus vector was a combination of DON-am-AcGFP1 and DONAI2-am-mStrawberry, and gene transfer was carried out by mixing each 250 μL of virus solutions. Further, a group of mixing 250 μL of a virus solution diluted 50-fold with 10F-DMEM was also set. In addition, a cell was suspended in a medium to 4×10^4 cells/mL, and each 500 μL was added to each well.
Gene transfer with polybrene was carried out in the same combination as that of retrovirus vectors according to the same manner as that of gene transfer with polybrene of Example 7-(2), provided that the cell was suspended in a medium to 4×10^4 cells/mL, and each 500 μL was added to each well of a 24-well culture plate (manufactured by Corning). […]
After 3 days from gene transfer operation, the cells were recovered, and AcGFP1 positive and mStrawberry positive cells were measured with a flow cytometer (CytomicsFC500, manufactured by Beckmann Coulter Inc.).

human skin fibroblast [3] = assay: Gene transfer efficiency with two retrovirus vectors, double positive cells (Example 9); settings: 5 days after gene transfer
Procedure: According to the same manner as that of Example 8-(1), immobilization of Retronectin on a culture plate was carried out.
According to the same manner as that of Example 8-(2), gene transfer was carried out, provided that a group in which a virus solution is diluted 10-fold or 100-fold with 10F-DMEM was set.
According to the same manner as that of Example 8-(3), a gene transfer efficiency was measured, provided that measurement with a flow cytometer was carried out 5 days after gene transfer operation.

human skin fibroblast [4] = assay: iPS cell colony induction, Retronectin or polybrene with changed virus amount (Example 10); settings: 28th day of culture, N=2
Procedure: Regarding gene transfer with a retrovirus vector, an amount of retrovirus was further changed in the condition under which each of Retronectin or polybrene was used, and induction of a pluripotent stem cell was carried out, followed by comparison. According to the same manner as that of Example 7-(2), gene transfer was carried out, provided that a group in which a virus solution is diluted 10-fold or 100-fold with 10F-DMEM was set. […] According to the same manner as that of Example 7-(4), the gene-introduced cell was seeded on a feeder cell, and culturing was continued, provided that the gene-introduced cell was seeded by each 2×10^4 cells. […] In addition, the number in the Table indicates an average value of N=2.

human skin fibroblast [5] = assay: iPS cell colony induction with three genes OCT4, SOX2 and KLF4, Retronectin or polybrene (Example 11); settings: OCT4, SOX2 and KLF4 only, 28th day of culture, N=2
Procedure: By limiting a gene to be introduced to three kinds of OCT4, SOX2 and KLF4, the same experiment as that of Example 10 was carried out.
According to the same manner as that of Example 10-(2), gene transfer was carried out, provided that, as the retrovirus vector, retrovirus vectors DON5-am-OCT4-IR-SOX2 and DON5-am-KLF4 prepared in Preparation Example 2 were used.
According to the same manner as that of Example 10-(4), the gene-introduced cell was seeded on a feeder cell, and culturing was continued.
Culturing was carried out according to the same manner as that of Example 10-(5).
In addition, the number in the Table indicates an average value of N=2.

[6] = tested on: human adult skin fibroblast; assay: iPS cell colony induction using a lentivirus vector, Retronectin or polybrene (Example 31); settings: 32nd day of culture
Procedure: According to the same manner as that of Example 1-(1), immobilization of Retronectin on a culture plate was carried out, provided that, as a plate to be coated with Retronectin, a non-treatment 12-well plate was used, and each 1 mL of a Retronectin solution (25 μg/mL) was added to each well.
Each 500 μL of each mixed virus solution prepared in Preparation Example 5 was added to a 12-well Retronectin immobilization culture plate, or a 12-well culture plate, and each 500 μL of human adult skin fibroblast suspended in 10F-DMEM to 1×10^5 cells/mL was further added to each well. Regarding polybrene infection condition, polybrene was added to a final concentration of 8 μg/mL. […] (day 0 of culturing).
On the sixth day of culture, according to the same manner as that of Example 5-(4), the gene-introduced cell was seeded on a feeder cell, and culturing was continued. […] During this, the medium was exchanged at 2 days interval.
In addition, regarding the condition A, the results of only one well are shown.

## Retronectin: fragment of fibronectin having a heparin-II binding region (registered trademark, CH-296, TAKARA BIO INC.)
Human skin fibroblast [1]; gene transfer once, with protein starvation treatment
  Number of iPS cell colonies: 25.5
Human skin fibroblast [1]; gene transfer once, without protein starvation treatment
  Number of iPS cell colonies: 9.5
Human skin fibroblast [1]; gene transfer two times, with protein starvation treatment
  Number of iPS cell colonies: 30.0
Human skin fibroblast [1]; gene transfer two times, without protein starvation treatment
  Number of iPS cell colonies: 26.0
Human skin fibroblast [2]; virus 50-fold dilution
  Ratio of double positive cells: 66.5%
Human skin fibroblast [2]; virus solution undiluted
  Ratio of double positive cells: 40.7%
Human skin fibroblast [3]; virus 10-fold dilution
  Ratio of both positive cells: 55.4
Human skin fibroblast [3]; virus 100-fold dilution
  Ratio of both positive cells: 67.6
Human skin fibroblast [3]; virus solution undiluted
  Ratio of both positive cells: 33.9
Human skin fibroblast [4]; virus 10-fold dilution
  Number of iPS cell colonies: 12.0
Human skin fibroblast [4]; virus 100-fold dilution
  Number of iPS cell colonies: 17.5
Human skin fibroblast [4]; virus solution undiluted
  Number of iPS cell colonies: 6.5
Human skin fibroblast [5]; virus 10-fold dilution
  Number of iPS cell colonies: 28.0
Human skin fibroblast [5]; virus 100-fold dilution
  Number of iPS cell colonies: 32.0
Human skin fibroblast [5]; virus solution undiluted
  Number of iPS cell colonies: 13.0
[6]; 20-fold concentrated virus
  number of a pluripotent stem cell (iPS cell) colony, Well 1: 3
  number of a pluripotent stem cell (iPS cell) colony, Well 2: 2
[6]; virus without concentration
  number of a pluripotent stem cell (iPS cell) colony, Well 1: 5

From patent US9238797B2, “Method for production of pluripotent stem cell” (TAKARA BIO INC., priority 2008, dated 2016)
